According to patent US12702691B2, “Extract of an herbal composition as antimicrobial and/or antibiofilm agent” (ALPHANOSOS S.A.S., priority 2016, dated 2026):

Experiments:
[1] = test system: B-A21; assay: Planktonic growth with extract and antibiotic relative to growth without both (Example 14); assay type: cell-based
Protocol: (§1) Starting from the herbal composition, the corresponding water extracts (or processed samples) was prepared according to the previously described Method B using 2.06 g of the above herbal composition with 40 mL water with 100 g/L sucrose for water extraction and including the decantation step before filtration. In an independent water extract preparation without sucrose, it has been measured that 2.06 g/40 mL of herbal composition corresponds to 14.5 g/L as deduced from the weight of the lyophilized dry herbal extract.
(§2) In Example 14 we calculate the growth of the bacteria in presence of antibiotic and/or herbal mix relative to the growth in the absence of both antibiotic and herbal mix extract.

[2] = test system: B-A17; assay: as above; assay type: cell-based
Protocol: as §1, §2

[3] = M[20C]-576 0 μg/mL, antibiotic 3.91 μg/mL
[4] = M[20C]-576 0 μg/mL, antibiotic 7.81 μg/mL
[5] = M[20C]-576 0 μg/mL, antibiotic 15.63 μg/mL
[6] = M[20C]-576 0 μg/mL, antibiotic 31.25 μg/mL
[7] = M[20C]-576 0 μg/mL, antibiotic 62.50 μg/mL
[8] = M[20C]-576 0 μg/mL, antibiotic 125 μg/mL
[9] = M[20C]-576 0 μg/mL, antibiotic 250 μg/mL
[10] = M[20C]-576 0 μg/mL, antibiotic 500 μg/mL
[11] = M[20C]-576 0 μg/mL, antibiotic 1000 μg/mL
[12] = M[20C]-576 0 μg/mL, antibiotic 2000 μg/mL
[13] = M[20C]-576 0 μg/mL, antibiotic 4000 μg/mL
[14] = M[20C]-576 90.6 μg/mL, antibiotic 3.91 μg/mL
[15] = M[20C]-576 90.6 μg/mL, antibiotic 7.81 μg/mL
[16] = M[20C]-576 90.6 μg/mL, antibiotic 15.63 μg/mL
[17] = M[20C]-576 90.6 μg/mL, antibiotic 31.25 μg/mL
[18] = M[20C]-576 90.6 μg/mL, antibiotic 62.50 μg/mL
[19] = M[20C]-576 90.6 μg/mL, antibiotic 125 μg/mL
[20] = M[20C]-576 90.6 μg/mL, antibiotic 250 μg/mL
[21] = M[20C]-576 90.6 μg/mL, antibiotic 500 μg/mL
[22] = M[20C]-576 90.6 μg/mL, antibiotic 1000 μg/mL
[23] = M[20C]-576 90.6 μg/mL, antibiotic 2000 μg/mL
[24] = M[20C]-576 90.6 μg/mL, antibiotic 4000 μg/mL
[25] = M[20C]-576 181.3 μg/mL, antibiotic 3.91 μg/mL
[26] = M[20C]-576 181.3 μg/mL, antibiotic 7.81 μg/mL
[27] = M[20C]-576 181.3 μg/mL, antibiotic 15.63 μg/mL
[28] = M[20C]-576 181.3 μg/mL, antibiotic 31.25 μg/mL
[29] = M[20C]-576 181.3 μg/mL, antibiotic 62.50 μg/mL
[30] = M[20C]-576 181.3 μg/mL, antibiotic 125 μg/mL
[31] = M[20C]-576 181.3 μg/mL, antibiotic 250 μg/mL
[32] = M[20C]-576 181.3 μg/mL, antibiotic 500 μg/mL
[33] = M[20C]-576 181.3 μg/mL, antibiotic 1000 μg/mL
[34] = M[20C]-576 181.3 μg/mL, antibiotic 2000 μg/mL
[35] = M[20C]-576 181.3 μg/mL, antibiotic 4000 μg/mL

Substance: Penicillin
- planktonic growth relative to the growth in the absence of both extract and antibiotic [1, 3]: 135%
- planktonic growth relative to the growth in the absence of both extract and antibiotic [1, 4]: 116%
- planktonic growth relative to the growth in the absence of both extract and antibiotic [1, 5]: 115%
- planktonic growth relative to the growth in the absence of both extract and antibiotic [1, 6]: 113%
- planktonic growth relative to the growth in the absence of both extract and antibiotic [1, 7]: 108%
- planktonic growth relative to the growth in the absence of both extract and antibiotic [1, 8]: 106%
- planktonic growth relative to the growth in the absence of both extract and antibiotic [1, 9]: 101%
- planktonic growth relative to the growth in the absence of both extract and antibiotic [1, 10]: 0%
- planktonic growth relative to the growth in the absence of both extract and antibiotic [1, 11]: 0%
- planktonic growth relative to the growth in the absence of both extract and antibiotic [1, 12]: 0%
- planktonic growth relative to the growth in the absence of both extract and antibiotic [1, 13]: 0%
- planktonic growth relative to the growth in the absence of both extract and antibiotic [1, 14]: 104%
- planktonic growth relative to the growth in the absence of both extract and antibiotic [1, 15]: 83%
- planktonic growth relative to the growth in the absence of both extract and antibiotic [1, 16]: 83%
- planktonic growth relative to the growth in the absence of both extract and antibiotic [1, 17]: 84%
- planktonic growth relative to the growth in the absence of both extract and antibiotic [1, 18]: 80%
- planktonic growth relative to the growth in the absence of both extract and antibiotic [1, 19]: 74%
- planktonic growth relative to the growth in the absence of both extract and antibiotic [1, 20]: 26%
- planktonic growth relative to the growth in the absence of both extract and antibiotic [1, 21]: 0%
- planktonic growth relative to the growth in the absence of both extract and antibiotic [1, 22]: 0%
- planktonic growth relative to the growth in the absence of both extract and antibiotic [1, 23]: 0%
- planktonic growth relative to the growth in the absence of both extract and antibiotic [1, 24]: 0%
- planktonic growth relative to the growth in the absence of both extract and antibiotic [1, 25]: 62%
- planktonic growth relative to the growth in the absence of both extract and antibiotic [1, 26]: 43%
- planktonic growth relative to the growth in the absence of both extract and antibiotic [1, 27]: 70%
- planktonic growth relative to the growth in the absence of both extract and antibiotic [1, 28]: 61%
- planktonic growth relative to the growth in the absence of both extract and antibiotic [1, 29]: 60%
- planktonic growth relative to the growth in the absence of both extract and antibiotic [1, 30]: 45%
- planktonic growth relative to the growth in the absence of both extract and antibiotic [1, 31]: −3%
- planktonic growth relative to the growth in the absence of both extract and antibiotic [1, 32]: −3%
- planktonic growth relative to the growth in the absence of both extract and antibiotic [1, 33]: −3%
- planktonic growth relative to the growth in the absence of both extract and antibiotic [1, 34]: −3%
- planktonic growth relative to the growth in the absence of both extract and antibiotic [1, 35]: −3%
- planktonic growth relative to the growth in the absence of both extract and antibiotic [2, 3]: 137%
- planktonic growth relative to the growth in the absence of both extract and antibiotic [2, 4]: 138%
- planktonic growth relative to the growth in the absence of both extract and antibiotic [2, 5]: 3%
- planktonic growth relative to the growth in the absence of both extract and antibiotic [2, 6]: 1%
- planktonic growth relative to the growth in the absence of both extract and antibiotic [2, 7]: 0%
- planktonic growth relative to the growth in the absence of both extract and antibiotic [2, 8]: −1%
- planktonic growth relative to the growth in the absence of both extract and antibiotic [2, 9]: 0%
- planktonic growth relative to the growth in the absence of both extract and antibiotic [2, 10]: 0%
- planktonic growth relative to the growth in the absence of both extract and antibiotic [2, 11]: 0%
- planktonic growth relative to the growth in the absence of both extract and antibiotic [2, 12]: 0%
- planktonic growth relative to the growth in the absence of both extract and antibiotic [2, 13]: 0%
- planktonic growth relative to the growth in the absence of both extract and antibiotic [2, 14]: 39%
- planktonic growth relative to the growth in the absence of both extract and antibiotic [2, 15]: 25%
- planktonic growth relative to the growth in the absence of both extract and antibiotic [2, 16]: 1%
- planktonic growth relative to the growth in the absence of both extract and antibiotic [2, 17]: 0%
- planktonic growth relative to the growth in the absence of both extract and antibiotic [2, 18]: 0%
- planktonic growth relative to the growth in the absence of both extract and antibiotic [2, 19]: 0%
- planktonic growth relative to the growth in the absence of both extract and antibiotic [2, 20]: 0%
- planktonic growth relative to the growth in the absence of both extract and antibiotic [2, 21]: 0%
- planktonic growth relative to the growth in the absence of both extract and antibiotic [2, 22]: 0%
- planktonic growth relative to the growth in the absence of both extract and antibiotic [2, 23]: 0%
- planktonic growth relative to the growth in the absence of both extract and antibiotic [2, 24]: 0%
- planktonic growth relative to the growth in the absence of both extract and antibiotic [2, 25]: 23%
- planktonic growth relative to the growth in the absence of both extract and antibiotic [2, 26]: 5%
- planktonic growth relative to the growth in the absence of both extract and antibiotic [2, 27]: −3%
- planktonic growth relative to the growth in the absence of both extract and antibiotic [2, 28]: −3%
- planktonic growth relative to the growth in the absence of both extract and antibiotic [2, 29]: −3%
- planktonic growth relative to the growth in the absence of both extract and antibiotic [2, 30]: −3%
- planktonic growth relative to the growth in the absence of both extract and antibiotic [2, 31]: −2%
- planktonic growth relative to the growth in the absence of both extract and antibiotic [2, 32]: −3%
- planktonic growth relative to the growth in the absence of both extract and antibiotic [2, 33]: −4%
- planktonic growth relative to the growth in the absence of both extract and antibiotic [2, 34]: −4%
- planktonic growth relative to the growth in the absence of both extract and antibiotic [2, 35]: −2%
